“And” between values parts separate entries of the source, which are not always exact repeats. Identical values can stand only once.
Tests used:
hM3Dq = hM3Dq (Homo sapiens, UniProt P20309, A239G/Y149C); experiment: [11C]clozapine PET DREADD occupancy in AAV-DREADD mice, hM3Dq; details: 0.1 mg kg-1 IP, individual values, listed as J52
Description: Animals were anesthetized with isoflurane or a mix of ketamine/xylazine and prepped on a stereotaxic apparatus (Kopf, Germany). […] When indicated, animals were pretreated with vehicle or the indicated drug 10 min before the injection of the PET radiotracer. Total acquisition time was 60 min.
In all cases, the PET data were reconstructed and corrected for dead-time and radioactive decay. All qualitative and quantitative assessments of PET images were performed using the PMOD software environment (PMOD Technologies, Zurich Switzerland). Binding potential BPND (a relative measure of specific binding) was calculated using a reference tissue model using the cerebellum as a reference tissue in rodents. In macaques, the kinetic data were fitted to a two-tissue compartment model and the concentration of parent in plasma was used as an input function, then the volume of distribution ratios compared to cerebellum were calculated to establish BPND. In all cases, the dynamic PET images were coregistered to MRI templates and time-activity curves were generated using predefined volumes of interest (macaques) or manually drawn in rodents and the described analyses were performed. Receptor occupancy was calculated using the formula: occupancy = (BPND^0 − BPND^Drug)/BPND^0 × 100, where BPND^0 is the binding potential of the baseline condition and BPND^Drug the binding potential when the animals were pretreated with the drug.

5-HT receptors = experiment: Binding and enzyme target profile screen (Eurofins); details: competitive binding screen
Description: These experiments were performed by an outside vendor (Eurofins, France). […] In each experiment, the respective reference compound was tested concurrently with the test compound to assess the assay reliability. […] Following incubation, the samples were filtered rapidly under vacuum through glass fiber filters presoaked in a buffer and rinsed several times with an ice-cold buffer using a 48-sample or 96-sample cell harvester. The filters were counted for radioactivity in a scintillation counter using a scintillation cocktail.

[1] = tested on: animals without DREADD expression; experiment: In vivo electrophysiology control: electrically evoked responses in animals without DREADD expression; design: species or system mouse; details: same injection
Description: (§1) For recording experiments, animals were anesthetized with […] urethane (i.p.), injected with 0.1 ml lidocaine (s.c.) in the incision points, and placed in a stereotaxic holder (Narishige, Japan). A trephine was drilled above the LA (from bregma, AP 1.5 mm, ML 3.1 mm) and the 32 channel opto-electrode was lowered whilst stimulating until a maximum response was located (DV 4 ± 0.2 mm). Body temperature was maintained constant at 37 °C through a feedback-regulated heating pad. Before recording, tissue was left for 10–20 mins for accommodation. Input–output test curves were recorded for both intensity and pulse length 30 min before and 1 h after drug injections using 1 ms-long pulses at 0.33 Hz (450 nm, 110 mA light intensity, ~14 mW, see Supplementary Fig. 10 Panel A). For electrical stimulation experiments (see Supplementary Fig. 10, Panels F–H), a stimulation bipolar twisted platinum–iridium microelectrode was placed in the internal capsule (AP −1.7 mm, ML 2.5 mm, DV 4.0 mm) to target the axons innervating the amygdala. Electrical pulses were given at an intensity that evoked 80% of the maximum response as biphasic 100 µs long pulses at 0.33 Hz.
Raw data were filtered (0.1–3000 Hz), amplified (100×), digitized and stored (10 kHz sampling rate) for offline analysis, with a tethered recording system (Multichannel Systems, Reutlingen, Germany). […]

hM4Di = biological target: T1, hM4Di (Homo sapiens, UniProt P08173, A203G/Y113C); experiment: In vivo electrophysiology: ChrimsonR light-evoked responses in LA of mice expressing hM4Di in MGM terminals; design: 026219; host or cells: mouse brain, dopamine D1 receptor-expressing neurons (transgene); species or system mouse; details: 0.1 mg kg-1 IP
T1 sequence (P08173 1-479 Y113C/A203G): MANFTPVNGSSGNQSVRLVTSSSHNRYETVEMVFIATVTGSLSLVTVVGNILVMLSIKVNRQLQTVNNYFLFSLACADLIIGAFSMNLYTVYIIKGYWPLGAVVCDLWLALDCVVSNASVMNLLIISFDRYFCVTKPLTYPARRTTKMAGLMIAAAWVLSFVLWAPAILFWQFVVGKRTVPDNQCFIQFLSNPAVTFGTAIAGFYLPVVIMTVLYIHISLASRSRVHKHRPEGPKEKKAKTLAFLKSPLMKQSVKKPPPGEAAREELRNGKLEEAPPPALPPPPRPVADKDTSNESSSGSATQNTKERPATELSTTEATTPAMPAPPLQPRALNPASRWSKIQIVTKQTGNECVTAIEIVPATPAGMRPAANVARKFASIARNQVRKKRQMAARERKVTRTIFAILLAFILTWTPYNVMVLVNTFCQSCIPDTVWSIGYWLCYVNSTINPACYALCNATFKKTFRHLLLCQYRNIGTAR
Description: Mice were purchased from Janvier Labs and stored in grouped cages (maximun 4 per cage) with ad libitum access to food and water, and in a 12 h light/dark cycle (lights on at 7:00 a.m.). All the experiments were performed in accordance to the national Danish law for the use of laboratory animals and approved by local authorities.
For AAV injection, mice were anaesthetized with Isoflurane and placed in a stereotaxic holder (Narishige, Japan). A trephine hole was drilled above the MGM (from bregma, AP 3.1 mm, ML 1.8 mm). Several injections of a mixture of ssAAV-8/2-hSyn1-hM4D(Gi)_mCherry-WPRE-hGHp(A) and ssAAV-8/2-hSyn1-oChIEF_ChrimsonR_mCitrine-WPRE-SV40pA (in a 1:4 viral particle ratio) were performed sequentially in different locations (AP 3.05 mm, ML 1.75 mm, DV 3.2 and 3.5 mm; second location AP 3.2 mm, ML 1.85 mm, DV 3.3 and 3.6 mm) so that a total of 4 injections of 0.5 µL were made to distribute the virus evenly through the desired location. Injections were made using a pressurized picospritzer and a pulled glass pipette. After viral injection, animals were kept for 4 weeks to ensure maximum virus expression through axon terminals.
as §1, with “For electrical stimulation experiments (see Supplementary Fig. 10, Panels F–H), a stimulation bipolar twisted platinum–iridium microelectrode was placed in the internal capsule (AP −1.7 mm, ML 2.5 mm, DV 4.0 mm) to target the axons innervating the amygdala. Electrical pulses were given at an intensity that evoked 80% of the maximum response as biphasic 100 µs long pulses at 0.33 Hz.” left out

DREADDs = experiment: [18F]JHU37107 PET in D1-DREADD transgenic mice; type: in vivo; details: D1-DREADD mice, 0.1 mg kg-1 IP
Description: [^18F]JHU37107 was prepared via the no-carrier-added ^18F-fluorination using an FDG Nuclear Interface module (Muenster, Germany). Briefly, 4 mg precursor (8-chloro-11-(4-ethylpiperazin-1-yl)-5H-dibenzo[b,e][1,4]diazepin-2-ol) and 8 mg tris(acetonitrile)cyclopentadienylruthenium(II)hexafluorophosphate (STREM, Boston, MA) were dissolved in ethanol (0.3 mL), the solution was heated at 85 °C for 25 min and evaporated to dryness under a stream of argon gas. The residue was dissolved in DMSO (0.5 mL) and acetonitrile (0.5 mL) and the solution was added to a dry complex of [^18F]fluoride and 9 mg 1,3-bis(2,6-di-i-propylphenyl)-2-chloroimidazolium chloride (STREM). The reaction mixture was heated at 130 °C for 30 min, diluted with mixture of 0.5 mL acetonitrile, 0.5 mL water and 0.03 mL TFA and injected onto a semi-preparative HPLC column (Luna C18, 10 micron, 10 mm × 250 mm) and eluted with 23:77 (v:v) acetonitrile:water (0.1% trifluoroacetic acid) at a flow rate of 10 mL min^−1. The radioactive peak corresponding to [^18F]JHU37107 (tR = 9.9 min) was collected in a reservoir containing 50 mL of water and 3 mL aq 8.4% NaHCO3 solution. The diluted product was loaded onto a solid phase extraction cartridge (Waters Oasis HLB plus light) and rinsed with 10 mL sterile saline. The product was eluted with 1000 µL of ethanol through a sterile 0.2 μm filter into a sterile, pyrogen-free vial and 10 mL saline was added through the same filter. The final product [^18F]JHU37107 was then analyzed by analytical HPLC (Luna C18, 10 micron, 4.6 mm × 250 mm; mobile phase 23:77 (v:v) acetonitrile:water (0.1% trifluoroacetic acid), flow rate of 3 mL min^−1; […] .
Total acquisition time was 60 min.

Sequence of hM3Dq (P20309 whole entry Y149C/A239G): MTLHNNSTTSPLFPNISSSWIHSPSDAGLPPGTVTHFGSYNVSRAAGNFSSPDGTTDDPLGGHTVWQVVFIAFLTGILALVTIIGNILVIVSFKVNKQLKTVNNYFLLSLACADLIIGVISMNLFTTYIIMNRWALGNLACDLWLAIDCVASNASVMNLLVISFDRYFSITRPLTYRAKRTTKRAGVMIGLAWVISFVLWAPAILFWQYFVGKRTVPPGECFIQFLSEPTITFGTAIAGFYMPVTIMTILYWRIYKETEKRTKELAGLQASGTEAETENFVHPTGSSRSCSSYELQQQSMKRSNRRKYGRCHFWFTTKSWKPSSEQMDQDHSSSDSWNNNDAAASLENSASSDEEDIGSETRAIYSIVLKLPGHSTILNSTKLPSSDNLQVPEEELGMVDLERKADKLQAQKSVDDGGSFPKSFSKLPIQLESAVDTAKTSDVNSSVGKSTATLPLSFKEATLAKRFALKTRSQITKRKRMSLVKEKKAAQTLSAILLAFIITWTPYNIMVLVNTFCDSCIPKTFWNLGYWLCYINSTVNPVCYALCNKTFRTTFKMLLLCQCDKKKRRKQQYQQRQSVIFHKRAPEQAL

## CCN1CCN(C2=Nc3cc(Cl)ccc3Nc3cccc(F)c32)CC1 [JHU37152, 8-Chloro-11-(4-ethylpiperazin-1-yl)-1-fluoro-5H-dibenzo[b,e][1,4]diazepine]
hM3Dq
  displacement of in vivo [11C]clozapine binding, hM3Dq: 25.1963 and 16.746 and 26.3837
5-HT receptors
  affinity at 5-HT receptors relative to clozapine: lower affinity than clozapine

## CCN1CCN(C2=Nc3cc(Cl)ccc3Nc3c(F)cccc32)CC1 [JHU37160, 8-Chloro-11-(4-ethylpiperazin-1-yl)-4-fluoro-5H-dibenzo[b,e][1,4]diazepine]
[1]
  effect on electrical stimulation evoked responses: no effect
hM4Di; 30 min after injection
  light-evoked response, % of baseline (maximal inhibition): 19 ± 2 % of baseline
hM4Di; ~10 min
  inhibition of ChrimsonR-induced terminal activation: 60%
  light-evoked response, % of baseline: 36 ± 9 % of baseline
5-HT receptors
  affinity at 5-HT receptors relative to clozapine: lower affinity than clozapine
DREADDs
  displacement of [18F]JHU37107 PET signal: displaceable
